Measured values taken from patent US20210353595A1, “USE OF MELATONIN IN PREPARATION OF MEDICAMENT FOR INHIBITING AND/OR KILLING BACTERIUM” (priority 2020, published 2021).
Entries after “also recorded” stand apart in the source; their conditions may differ.

Tests used:
inflammatory cytokines = test: RT-PCR and ELISA of inflammatory cytokines after Pasteurella multocida infection; assay type: in vivo, C57BL/6 mice; settings: 24 hours after infection, lung tissues and serum
Experimental: The mouse lung tissue samples were collected, and the total RNA of mouse lung tissues was extracted according to the instructions of the total RNA extraction kit (Invitrogen). According to the instructions of a TaKaRa reverse transcription kit, cDNA was prepared and reverse transcribed with the general process as follows:
The process of qRT-PCR was carried out with reference to previous studies, and (3-actin was used as a reference gene to normalize the transcription level of the target gene. The specific primer sequences used are shown in Table 2. The relative expression level of the gene was calculated according to the equation 2^−(ΔΔCt), wherein ΔΔCt=(CT of the target gene−Ct of the internal reference) of the experimental group−(Ct of the target gene−Ct of the internal reference) of the control group.
ELISA samples were divided into serum samples and lung tissue homogenate samples. Among them, the process of collecting serum was collecting mouse whole blood from the eyeball, storing overnight at 4° C., centrifuging at 5000 rpm for 10 min, collecting the supernatant and storing it at −20° C. for later use. While the preparation process of the mouse lung homogenate was collecting lung tissues, adding 2 mL sterile normal saline to prepare a homogenate, then repeatedly freezing and thawing the homogenate in liquid nitrogen (5 min) and ice-water bath for 3 times, then centrifuging at 4° C. and 12000 rpm for 10 min, and collecting the supernatant for later use. According to the instructions of the kit, the serum and the supernatant of lung tissue homogenate as prepared were detected for IL-10, IL-4, IL-6, IL-10, TNF-α and IFN-γ (eBioscience).

[1] = test system: citrate synthase in Streptococcus; test: Citrate synthase activity of bacteria after treatment; assay type: cell-based, Streptococcus pneumoniae; settings: MT 1-3 mg/mL, 12 h, also with exogenous citric acid, FIG. 28
Experimental: Further, 1 mL of Klebsiella pneumoniae, Pseudomonas aeruginosa, Diplococcus pneumoniae and Streptococcus pneumoniae at the logarithmic growth stage was added into 100 mL of fresh and sterile Martin broth liquid medium containing different concentrations of melatonin and citric acid (MT-1 mg/mL, MT-2 mg/mL, MT-3 mg/mL, CA-1 mg/mL, CA-2 mg/mL, CA-3 mg/mL, MT-1 mg/mL-CA-1 mg/mL, MT-2 mg/mL-CA-2 mg/mL, MT-3 mg/mL-CA-3 mg/mL) added was. Melatonin-free DMSO was used as the solvent control group, and the bacterial cells were cultured in a constant-temperature shaker at 37° C. and 220 rpm for 12 h. Thereafter, 1 mL of the bacterial solution was pipetted and centrifuged at 3000 r/min for 10 minutes. The bacterial cells were then collected and determined for citrate synthase activity according to the protocol of the instructions for the kit. Each experiment was repeated three times, and each group was set in triplicate.

Pasteurella multocida [2] = test: Leakage of bacterial cell contents; assay type: cell-based; settings: MT 1-10 mg/mL, 12 h
Experimental: 1 mL of Pasteurella multocida (1×10^9 CFU) at the logarithmic growth stage was added into 100 mL of fresh and sterile Martin broth medium containing different concentrations (1 mg/mL, 2 mg/mL, 3 mg/mL, 4 mg/mL, 6 mg/mL, 8 mg/mL and 10 mg/mL) of MT. Melatonin-free DMSO was used as a solvent control group, ampicillin (100 μg/mL) was used as a positive control group, and bacterial cells were cultured in a shaker at 37° C. and 220 rpm for 12 h. Thereafter, 1 mL of the bacterial solution was taken and centrifuged at 3000 r/min for 10 minutes, and the supernatant and precipitated cells were collected, respectively. At the same time, 2.5 mmol/mL of o-nitrophenyl-β-D-galactopyranoside (ONPG) and Pasteurella multocida were added to detect β-galactosidase. The concentrations of protein, alkaline phosphatase (AKP) and reducing sugar in the supernatant were determined sequentially using respective determination kits. The β-galactosidase in the supernatant was determined by measuring the optical density at 420 nm (OD420). Each experiment was carried out for three times, and each group was set in triplicate.

Pasteurella multocida [3] = test: Non-targeted metabonomic analysis; assay type: cell-based; settings: 1 mg/mL of MT, 12 hours
Experimental: 1 mL of fresh Pasteurella multocida (P. multocida) at the logarithmic growth stage was added into 100 mL of fresh Martin liquid medium containing 1 mg/mL of MT, and MT-free DMSO was used as a solvent control group. All cultures were incubated with shaking at 37° C. and 220 rpm for 12 hours. The bacterial samples were centrifuged at a speed of 3000 rpm/min at 4° C. for 10 minutes, the supernatant was removed, and the bacterial cells were collected and washed with PBS for 3 times. The bacterial cells were rapidly frozen in liquid nitrogen, transferred to dry ice, and sent to Shanghai Baiqu Biomedical Technology Co., Ltd. for metabolomic analysis (Q Exactive Orbitrap, Thermo Fisher Scientific, USA). Through the non-targeted metabonomic study of Pasteurella multocida cells before and after melatonin treatment, it was clarified which metabolic pathway of the bacteria is affected by melatonin in exerting the antibacterial activity of melatonin.

[4] = test system: citrate synthase of Pasteurella multocida; test: Citrate synthase activity of bacteria after treatment; assay type: cell-based; settings: MT 1, 2, 3 mg/mL, 12 h; FIG. 15
Experimental: Based on the discovery of metabolomics, the enzyme activity of citrate synthase after melatonin treatment was studied. 1 mL of Pasteurella multocida (1×10^9 CFU) at the logarithmic growth stage was added into 100 mL of fresh and sterile Martin broth medium containing different concentrations (1 mg/mL, 2 mg/mL, and 3 mg/mL) of MT. Melatonin-free DMSO was used as a solvent control group, and the bacterial cells were cultured in a constant-temperature shaker at 37° C. and 220 rpm for 12 h. Thereafter, 1 mL of the bacterial solution was centrifuged at 3000 r/min for 10 minutes, and the supernatant and precipitated cells were collected, respectively. The citrate synthase activity was determined using a determination kit according to the protocol of the instructions. Each experiment was repeated for three times, and each group was set in triplicate. Further, 1 mL of Pasteurella multocida (1×10^9 CFU) at the logarithmic growth stage was added into 100 mL of fresh and sterile Martin broth medium containing different concentrations of melatonin and citric acid (MT-1 mg/mL, MT-2 mg/mL, MT-3 mg/mL, CA-1 mg/mL, CA-2 mg/mL, CA-3 mg/mL, MT-1 mg/mL-CA-1 mg/mL, MT-2 mg/mL-CA-2 mg/mL, MT-3 mg/mL-CA-3 mg/mL). […] The citrate synthase activity was determined using a determination kit according to the protocol of the instructions. […]

COc1ccc2[nH]cc(CCNC(C)=O)c2c1 [melatonin, N-acetyl-5-methoxytryptamine]
expression of IFN-γ (inflammatory cytokines): significantly reduced
expression of IL-6 (inflammatory cytokines): significantly reduced
expression of TNF-α (inflammatory cytokines): significantly reduced
transcription and expression of IL-4 (inflammatory cytokines): promoted
transcription and expression of IL-10 (inflammatory cytokines): promoted
enzyme activity of citrate synthase [1]: not influenced
activity of extracellular β-galactosidase (Pasteurella multocida [2]; OD420, FIG. 7): increase
content of extracellular proteins (Pasteurella multocida [2]; supernatant, FIG. 4): increase
content of extracellular alkaline phosphatase (Pasteurella multocida [2]; supernatant, FIG. 6): increase
content of extracellular reducing sugar (Pasteurella multocida [2]; supernatant, FIG. 8): increase
activity of extracellular ATPase (Pasteurella multocida [2]; FIG. 5): increase
acetyl coenzyme A level in bacterial cells (Pasteurella multocida [3]): significantly up-regulated
citric acid level in bacterial cells (Pasteurella multocida [3]): significantly down-regulated
pyruvic acid level in bacterial cells (Pasteurella multocida [3]): significantly up-regulated
activity of citrate synthase in the bacteria and the culture medium [4]: significantly reduced; also recorded: significantly inhibiting
